Experimental data from EP4656630A1, “NOVEL COMPOUND AS LYSYL-TRNA SYNTHETASE 1 INHIBITOR, AND USE THEREOF” (Zymedi Co., Ltd., priority 2023, dated 2024).

How the values were obtained:
[1] = Microsomal metabolic stability, rat; format: in vitro ADME
Protocol: (§1) Metabolic stability (MS) evaluation was conducted for the selected compounds by measuring in vitro stability in two species, rat and human, according to the microsomal stability measurement method. As a result, it was identified that MS varied depending on the transformation of parts A, B, and C.

Raw 264.7 cells = assay: LN (Laminin 421)-induced immune cell migration, Transwell; format: cell-based; details: Mus musculus, RAW264.7; 3 µM compound, LN (Laminin 421 1 µg/ml), 24 hours, % inhibition compared to control group; read-out: Migration inhibitor % (3uM)
Protocol: Cell migration was assessed based on the method described in the prior literature (Park, S. G. et al. Human lysyl-tRNA synthetase is secreted to trigger proinflammatory response. Proceedings of the National Academy of Sciences, 2005, 102.18: 6356-6361.). The specific experimental method is as follows. A Transwell (Corning#3421-5µm pore) was coated with gelatin (0.5mg/ml), and then Raw 264.7 cells (1 x 10^5 cells/well) were seeded in the upper chamber. Serum-free medium (Serum Free DMEM, 500 µl) containing LN (Laminin 421 1 µg/ml) was added to the lower chamber. Each compound was treated at a concentration of 3µM in the upper chamber. After 24 hours, the cells were fixed with 70% methanol for 30 minutes and stained with 50% hematoxylin for 30 minutes. Non-migrating cells on the upper side of the membrane were removed with a cotton swab, and the membrane was mounted on a slide. Migrating cells on the lower side of the membrane were observed under a high-power microscope, and the number of cells was measured from the obtained images and expressed as the inhibition rate (% inhibition) compared to the control group.

KARS1 and 37LR = target: T1, KARS1 and 37LR (Homo sapiens, UniProt Q15046); assay: Cell-free ELISA of KARS1 and 37LR (laminin receptor) binding; details: 10 µM compound, 1 hour, plate coated with KARS1 (1-207aa), LRF
T1 construct: KARS1 (1-207aa)
T1 sequence (Q15046 1-207): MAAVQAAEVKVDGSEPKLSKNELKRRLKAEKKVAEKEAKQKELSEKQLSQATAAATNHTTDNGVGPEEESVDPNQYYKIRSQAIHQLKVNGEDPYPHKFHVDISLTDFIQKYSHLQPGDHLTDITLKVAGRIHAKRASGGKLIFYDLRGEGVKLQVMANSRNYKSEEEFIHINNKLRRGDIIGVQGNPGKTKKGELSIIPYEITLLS
Protocol: Next, based on the mechanism of action, a cell-free ELISA analysis was conducted to select compounds with high inhibitory activity on the binding of KARS1 and LR (laminin receptor).

Raw264.7 cells = assay: KARS1-induced trans-migration assay; format: cell-based, mouse; details: Mus musculus, RAW264.7; 1 µM compound; read-out: KARS1-induced Raw264.7 cell migration (% inhibition, 1uM)
Protocol: C0001 inhibits the binding of KARS1 and 67LR, thereby blocking the migration of monocytes/macrophages and suppressing inflammation. Accordingly, a trans-migration assay using mouse macrophages (Raw264.7) was conducted to preliminarily screen drugs that inhibit the migration of monocytes/macrophages.
Based on this, when KARS1 protein was directly treated externally instead of LN, the trans-migration of Raw264.7 was induced, and the cell migration inhibitory effect of the KARS1 inhibitor C0001 was confirmed. It was verified that C0001, which specifically binds to KARS1, can inhibit cell migration by binding to extracellular KARS1, in addition to the mechanism of inhibiting cell membrane migration of KARS1 induced by laminin and its binding to 67LR, thereby enabling this analysis to be used as a direct method for evaluating in vitro activity against KARS1.
Next, preliminary candidate substances with high inhibitory activity at 1 µM were treated at concentrations of 0.1~4 µM for analysis.

[2] = Microsomal metabolic stability, human; format: in vitro ADME
Protocol: as §1

Metabolic stability (% remaining at 30 min) Rat [1] [%] | inhibition at 10 µM (KARS1 and 37LR) [%] | Metabolic stability (% remaining at 30 min) Human [2] [%] | Structure (SMILES) | inhibition at 3 µM (Raw 264.7 cells) [%] | inhibition at 1 µM (Raw264.7 cells) [%]
 | 65.9 |  | COc1ccc(CCN(Cc2ccc(N3CC[C@@H](C(=O)O)C3)cc2)c2nc3cccc(F)c3s2)cc1 [Compound 24, (R)-1-(4-(((7-fluorobenzo[d]thiazol-2-yl)(4-methoxyphenethyl)-amino)methyl)phenyl)pyrrolidine-3-carboxylic acid] | 68 | 96.3
 | 78.4 |  | COc1ccc(CCN(Cc2ccc(-c3ccc(C(=O)O)o3)cc2)c2nc3cccc(F)c3s2)cc1 [Compound 26, 5-(4-(((7-fluorobenzo[d]thiazol-2-yl)(4-methoxyphenethyl)amino)-methyl)phenyl)furan-2-carboxylic acid] | 48 | 80.6
 | 14 |  | COc1ccc(CCN(Cc2nc3ccc(C(=O)O)cc3n2C)c2nc3cccc(F)c3s2)cc1 [Compound 27, 2-(((7-fluorobenzo[d]thiazol-2-yl)(4-methoxyphenethyl)amino)methyl)-1-methyl-1H-benzo[d]imidazole-6-carboxylic acid] | 9 | 9.1
 | 64 |  | COc1ccc(CCN(Cc2ccc3c(c2)CN(C(N)=O)C3)c2nc3cccc(F)c3s2)cc1 [Compound 30, 5-(((7-fluorobenzo[d]thiazol-2-yl)(4-methoxyphenethyl)amino)-methyl)isoindoline-2-carboxamide] | 37.4 | 3.2
 | -27.9 |  | COc1ccc(CCN(Cc2ccc3c(c2)CN(CC(=O)O)C3)c2nc3cccc(F)c3s2)cc1 [Compound 32, 2-(5-(((7-fluorobenzo[d]thiazol-2-yl)(4-methoxyphenethyl)amino)-methyl)isoindolin-2-yl)acetic acid] | 45 | 18.1
 | 41.9 |  | COc1ccc(CCN(Cc2ccc(NC3(C(=O)O)CCC3)cc2)c2nc3cccc(F)c3s2)cc1 [Compound 33, 1-((4-(((7-fluorobenzo[d]thiazol-2-yl)(4-methoxyphenethyl)amino)-methyl)phenyl)amino)cyclobutane-1-carboxylic acid] | 15.7 | 57.6
 | 37.5 |  | COc1ccc(CCN(Cc2ccc(N3CC(C(=O)O)C3)cc2)c2nc3cccc(F)c3s2)cc1 [Compound 39, 1-(4-(((7-fluorobenzo[d]thiazol-2-yl)(4-methoxyphenethyl)amino)-methyl)phenyl)azetidine-3-carboxylic acid] | 51.9 | 97.4
 | 66.7 |  | O=C(O)[C@@H]1CCN(c2cccc(CN(CCc3ccc(OC(F)(F)F)cc3)c3nc4cccc(F)c4s3)c2)C1 [Compound 40, (R)-1-(3-(((7-fluorobenzo[d]thiazol-2-yl)(4-(trifluoromethoxy)-phenethyl)amino)methyl)phenyl)pyrrolidine-3-carboxylic acid] | 37.7 | 76.1

The remaining lines, values behind:

Structure (SMILES) | Metabolic stability (% remaining at 30 min) Rat [1] [%] | inhibition at 10 µM (KARS1 and 37LR) [%] | Metabolic stability (% remaining at 30 min) Human [2] [%] | inhibition at 3 µM (Raw 264.7 cells) [%] | inhibition at 1 µM (Raw264.7 cells) [%]
COc1ccc(CCN(Cc2ccc(N3CCC(C(=O)O)C3)cc2)c2nc3cccc(F)c3s2)cc1 (stereo not shown) [Compound 13, 1-(4-(((7-fluorobenzo[d]thiazol-2-yl)(4-methoxyphenethyl)amino)-methyl)phenyl)pyrrolidine-3-carboxylic acid] | 90 | 83.9 | 74 | 90 | 93.4
COc1ccc(CCN(Cc2ccc(C(=O)N3CCC[C@H]3C(=O)O)cc2)c2nc3cccc(F)c3s2)cc1 [Compound 14, (4-(((7-fluorobenzo[d]thiazol-2-yl)(4-methoxyphenethyl)amino)-methyl)benzoyl)-L-proline] |  | 100 |  | 32 | 73.4
COc1ccc(CCN(Cc2ccc(C(=O)N3CCC(C(=O)O)C3)cc2)c2nc3cccc(F)c3s2)cc1 (stereo not shown) [Compound 15, 1-(4-(((7-fluorobenzo[d]thiazol-2-yl)(4-methoxyphenethyl)amino)-methyl)benzoyl)pyrrolidine-3-carboxylic acid] |  | 86.4 |  | 0 | 54.4
COc1ccc(CCN(Cc2ccc(C(=O)NCC(=O)O)cc2)c2nc3cccc(F)c3s2)cc1 [Compound 16, (4-(((7-fluorobenzo[d]thiazol-2-yl)(4-methoxyphenethyl)amino)-methyl)benzoyl)glycine] |  | 68.2 |  | 33 | 86.2
COc1ccc(CCN(Cc2cccc(N3CCC(C(=O)O)C3)c2)c2nc3cccc(F)c3s2)cc1 (stereo not shown) [Compound 17, 1-(3-(((7-fluorobenzo[d]thiazol-2-yl)(4-methoxyphenethyl)amino)-methyl)phenyl)pyrrolidine-3-carboxylic acid] | 71 | 79 | 58 | 42 | 5.6
COc1ccc(CCN(Cc2ccc(C(=O)N[C@@H](C(=O)O)C(C)C)cc2)c2nc3cccc(F)c3s2)cc1 [Compound 18, (4-(((7-fluorobenzo[d]thiazol-2-yl)(4-methoxyphenethyl)amino)-methyl)benzoyl)-D-valine] |  | 86.2 |  | 9 | 31
COc1ccc(CCN(Cc2ccc(N3CCC[C@H]3C(=O)O)cc2)c2nc3cccc(F)c3s2)cc1 [Compound 19, (4-(((7-fluorobenzo[d]thiazol-2-yl)(4-methoxyphenethyl)amino)-methyl)phenyl)-L-proline] |  | 75.8 |  | 15 | 69
COc1ccc(CCN(Cc2cccc(N3CCC[C@H]3C(=O)O)c2)c2nc3cccc(F)c3s2)cc1 [Compound 20, (3-(((7-fluorobenzo[d]thiazol-2-yl)(4-methoxyphenethyl)amino)-methyl)phenyl)-L-proline] |  | 3.4 |  | 18 | 49.1
COc1ccc(CCN(Cc2nc3ccc(B(O)O)cc3n2C)c2nc3cccc(F)c3s2)cc1 [Compound 21, (2-(((7-fluorobenzo[d]thiazol-2-yl)(4-methoxyphenethyl)amino)-methyl)-1-methyl-1H-benzo[d]imidazol-6-yl)boronic acid] |  | 8.9 |  | 36 | 26.1
COc1ccc(CCN(Cc2cccc(N3CC[C@H](C(=O)O)C3)c2)c2nc3cccc(F)c3s2)cc1 [Compound 22, (S)-1-(3-(((7-fluorobenzo[d]thiazol-2-yl)(4-methoxyphenethyl)amino)-methyl)phenyl)pyrrolidine-3-carboxylic acid] |  | 52 |  | 19 | 43.4
COc1ccc(CCN(Cc2cccc(N3CC[C@@H](C(=O)O)C3)c2)c2nc3cccc(F)c3s2)cc1 [Compound 23, (R)-1-(3-(((7-fluorobenzo[d]thiazol-2-yl)(4-methoxyphenethyl)amino)-methyl)phenyl)pyrrolidine-3-carboxylic acid] |  | 71.6 |  | 59 | 35.4
